Data published in patent EP1154787B1 (priority 1999, dated 2000).
Several values for one entry are separate records, joined by “and”; a condition that tells them apart may be missing. Equal entries are not always repeated. Entries after “also recorded” stand apart in the source; their conditions may differ. Structures can show the parent of a compound that is named as a salt. Where two headings read alike, the source gives them in different places.

What was measured:
yellow fever virus = type: cell-based
VSV [1] = type: cell-based
kunjin virus [2] = type: cell-based
a viral challenge = type: cell-based; settings: for EC50: read-out: µM of test compounds # (concentration of test compound alone to protect Vero cells against a viral challenge by approximately 50%)
dengue virus = type: cell-based
VSV [3] = type: cell-based; remark: listed apart in the source
[4] = cited from earlier work
kunjin virus [5] = type: cell-based; remark: listed apart in the source

**Q.** What does the source list for `Nc1ncnc2c1ncn2[C@@H]1C=C(CO)[C@@H](O)[C@H]1O` [Neplanocin A, neplanocin A]?
**A.** CI (yellow fever virus): 0.63 and 0.71 and 0.59; CI (VSV [1]): 0.80 and 0.56 and 0.40 and 0.67 and 0.71

**Q.** For `NC12CC3CC(CC(C3)C1)C2` [amantadine, amantadine hydrochloride], which CI (VSV [1]; hydrochloride) is on record?
**A.** 0.79 and 0.76 and 0.62 and 0.66 and 0.87

**Q.** And the CI (kunjin virus [2])?
**A.** 0.76

**Q.** What about the “Fold enhancement of antiviral activity” value (a viral challenge) of the same compound?
**A.** 50 fold

**Q.** What about the EC50 (a viral challenge) of the same compound?
**A.** ~1 µM

**Q.** For `NC(=O)c1c[se]c([C@@H]2O[C@H](CO)[C@@H](O)[C@H]2O)n1` [Selenofurin, 2-β-D-ribofuranosylselenazole-4-carboxamide], which CI (yellow fever virus) is on record?
**A.** 0.94 and 0.65 and 0.53 and 0.62 and 0.49

**Q.** For `Cc1nc(N)nc(N)c1-c1ccc(Cl)c(Cl)c1` [NSC 7364], which CI (dengue virus) is on record?
**A.** 0.834 and 0.813 and 0.979

**Q.** And the IC50 (dengue virus; read-out: NSC 7364 IC50)?
**A.** 372 nM

**Q.** For `Nc1nccc2c1ncn2[C@@H]1C=C(CO)[C@@H](O)[C@H]1O` [3-DAN, 3-deazaneplanocin A], which CI (VSV [1]) is on record?
**A.** 0.88 and 0.85 and 0.79 and 0.80 and 0.92 and 0.90 and 0.84

**Q.** For `C#Cc1c(C(N)=O)ncn1[C@@H]1O[C@H](CO)[C@@H](O)[C@H]1O` [EICAR, 5-ethynyl-1-β-D-ribofuranosylimidazole-4-carboxamide], which “Fold enhancement of antiviral activity” value (a viral challenge) is on record?
**A.** 2 fold

**Q.** And the EC50 (a viral challenge)?
**A.** ~1 µM

**Q.** Which CI (VSV [1]) does the source give for `O=c1cnn([C@@H]2O[C@H](CO)[C@@H](O)[C@H]2O)c(=O)[nH]1` [6-AU, 6-azauridine] here?
**A.** 0.49 and 0.59

**Q.** What does the source list for `CCc1c(CNc2ccc(C(=O)NC(CC(=O)O)C(=O)O)cc2)ccc2nc(N)nc(N)c12` (stereo not drawn) [NSC 184692]?
**A.** enhanced the anti-viral effect of human IFNβ (dengue virus): 10 fold; EC50 (dengue virus; read-out: ED50 against dengue virus): 0.12 nM

**Q.** Which CI (yellow fever virus) does the source give for `NC(=O)c1[nH]nc([C@@H]2O[C@H](CO)[C@@H](O)[C@H]2O)c1O` [NSC 143095] here?
**A.** 0.71 and 0.57 and 0.69

**Q.** For `COc1c(C)c2c(c(O)c1C/C=C(\C)CCC(=O)O)C(=O)OC2` [mycophenolic acid], which IC50 (VSV [1]; read-out: MPA IC50) is on record?
**A.** 200 nM

**Q.** What about the CI (VSV [3]) of the same compound?
**A.** 0.48 and 0.46 and 0.56

**Q.** And the “Fold enhancement of antiviral activity” value (a viral challenge)?
**A.** 3 fold

**Q.** What about the EC50 (a viral challenge) of the same compound?
**A.** ~0.1 µM

**Q.** For `NC(=O)c1csc([C@@H]2O[C@H](CO)[C@@H](O)[C@H]2O)n1` [Tiazofurin, 2-β-D-ribofuranosylthiazole-4-carboxamide], which CI (yellow fever virus) is on record?
**A.** 0.85 and 0.68 and 0.51 and 0.87

**Q.** Which “deaths with refractory hypotension” value ([4]; hypotensive patients at 4.7 mg/m^2 per hour of CPE-C) does the source give for `Nc1ccn([C@@H]2C=C(CO)[C@@H](O)[C@H]2O)c(=O)n1` [CPE-C, cyclopentenyl cytosine] here?
**A.** Two of the four hypotensive patients died

**Q.** What about the hypotension ([4]; patients receiving ≤2.5 mg/m^2 per h CPE-C) of the same compound?
**A.** Hypotension was not seen; also recorded: no hypotension was observed

**Q.** What about the hypotension ([4]; patients who received 4.7 mg/m^2 per hour of CPE-C, 24 to 48 hours after completion of infusion) of the same compound?
**A.** Four of the eleven patients

**Q.** And the CI (VSV [1])?
**A.** 0.98 and 0.81 and 0.80 and 0.97 and 0.75 and 0.79 and 0.76 and 0.74

**Q.** And the “enhancement of the antiviral activity of interferon” value (kunjin virus [5])?
**A.** 10 fold and 5 fold

**Q.** What about the “Fold enhancement of antiviral activity” value (a viral challenge) of the same compound?
**A.** 10 fold

**Q.** And the EC50 (a viral challenge)?
**A.** ~0.1 µM

**Q.** For `CCc1nc(N)nc(N)c1-c1ccc(Cc2ccccc2)c([N+](=O)[O-])c1` [NSC 382046], which CI (dengue virus) is on record?
**A.** 0.758 and 0.672

**Q.** What about the CI (kunjin virus [2]) of the same compound?
**A.** 0.99 and 0.96 and 0.83 and 0.75 and 0.70
